Measured values reported in the supplement of paper PMC10307832.

Experiments:
Experiment in all cases: relative viability (nuclei count vs DMSO), 5 days (fraction); higher = more cells survive
AZ505 + Decitabine = compound: C1CCC(CC1)N(CCNCCC2=C3C(=C(C=C2)O)NC(=O)CO3)C(=O)CCNCCC4=CC(=C(C=C4)Cl)Cl [AZ505] + Nc1ncn([C@H]2C[C@H](O)[C@@H](CO)O2)c(=O)n1 [Decitabine] (partner 2 µM)
Method in brief: (§1)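 Cells from lung cancer lines were seeded into 1536-well plates and, one day later, dosed by pin tool. Treatments were either a single drug or a fixed dose of an anchor drug with five library-drug doses (not always all listed) in √10 steps. After 5 days, nuclei were stained in a one-step fixation (final 0.05% Triton X-100, 1% formaldehyde, 1 ug/ml Hoechst) and counted on 4× images, and relative viability is the treated-to-vehicle nuclei ratio, as the median of duplicate plates.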

AZ505 + Luminespib = compound: C1CCC(CC1)N(CCNCCC2=C3C(=C(C=C2)O)NC(=O)CO3)C(=O)CCNCCC4=CC(=C(C=C4)Cl)Cl [AZ505] + CCNC(=O)c1noc(-c2cc(C(C)C)c(O)cc2O)c1-c1ccc(CN2CCOCC2)cc1 [Luminespib] (partner 0.01 µM)
Method in brief: as §1

AZ505 + Phenformin = compound: C1CCC(CC1)N(CCNCCC2=C3C(=C(C=C2)O)NC(=O)CO3)C(=O)CCNCCC4=CC(=C(C=C4)Cl)Cl [AZ505] + N=C(N)NC(=N)NCCc1ccccc1 [Phenformin] (partner 250 µM)
Method in brief: as §1

Dactolisib + Linsitinib = compound: Cn1c(=O)n(-c2ccc(C(C)(C)C#N)cc2)c2c3cc(-c4cnc5ccccc5c4)ccc3ncc21 [Dactolisib] + C[C@]1(O)C[C@@H](c2nc(-c3ccc4ccc(-c5ccccc5)nc4c3)c3c(N)nccn32)C1 [Linsitinib] (partner 1 µM)
Method in brief: as §1

Cell Line | relative viability (AZ505 + Decitabine; first compound 0.253 µM) | relative viability (AZ505 + Decitabine; first compound 0.8 µM) | relative viability (AZ505 + Decitabine; first compound 2.53 µM) | relative viability (AZ505 + Decitabine; first compound 8 µM) | relative viability (AZ505 + Luminespib; first compound 0.08 µM) | relative viability (AZ505 + Luminespib; first compound 0.253 µM) | relative viability (AZ505 + Luminespib; first compound 0.8 µM) | relative viability (AZ505 + Luminespib; first compound 2.53 µM) | relative viability (AZ505 + Luminespib; first compound 8 µM) | relative viability (AZ505 + Phenformin; first compound 0.08 µM) | relative viability (AZ505 + Phenformin; first compound 0.253 µM) | relative viability (AZ505 + Phenformin; first compound 0.8 µM) | relative viability (AZ505 + Phenformin; first compound 2.53 µM) | relative viability (AZ505 + Phenformin; first compound 8 µM) | relative viability (AZ505 + Decitabine; first compound 0.08 µM) | relative viability (Dactolisib + Linsitinib; first compound 0.002 µM) | relative viability (Dactolisib + Linsitinib; first compound 0.006325 µM) | relative viability (Dactolisib + Linsitinib; first compound 0.02 µM) | relative viability (Dactolisib + Linsitinib; first compound 0.06325 µM) | relative viability (Dactolisib + Linsitinib; first compound 0.2 µM)
NCI-H1648 | 0.508 | 0.538 | 0.615 | 0.522 | – | – | – | – | – | – | – | – | – | – | – | – | – | – | – | –
SK-MES-1 | 0.409 | 0.392 | 0.412 | 0.439 | 0.511 | 0.77 | 0.758 | 0.643 | 0.768 | 0.485 | 0.618 | 0.643 | 0.67 | 0.601 | 0.369 | 1.1 | 1.12 | 0.999 | 0.953 | 0.467
SK-LU-1 | 0.568 | 0.565 | 0.406 | 0.604 | 0.201 | 0.203 | 0.18 | 0.18 | 0.176 | 0.353 | 0.345 | 0.33 | 0.394 | 0.379 | 0.518 | 1.26 | 0.988 | 0.728 | 0.494 | 0.397
HCC-366 | 0.344 | 0.316 | 0.316 | 0.341 | – | – | – | – | – | 0.577 | 0.632 | 0.572 | 0.56 | 0.582 | 0.342 | 0.561 | 0.453 | 0.487 | 0.185 | 0.0961
201T | 0.863 | 0.812 | 0.877 | 0.824 | 1.01 | 1.05 | 1.01 | 1.02 | 1.08 | 0.446 | 0.445 | 0.501 | 0.468 | 0.477 | 0.857 | 1.03 | 1.08 | 0.979 | 0.862 | 0.73
HCC-827 | 0.313 | 0.324 | 0.37 | 0.351 | 0.731 | 1.03 | 0.683 | 0.532 | 1.11 | 0.401 | 0.427 | 0.453 | 0.44 | 0.425 | 0.325 | 1.02 | 0.919 | 1.03 | 0.911 | 0.699
NCI-H647 | 0.451 | 0.372 | 0.373 | 0.379 | 0.122 | 0.221 | 0.119 | 0.134 | 0.138 | 0.574 | 0.314 | 0.479 | 0.488 | 0.702 | 0.356 | 1.15 | 0.898 | 0.736 | 0.192 | 0.146
NCI-H2023 | 0.242 | 0.228 | 0.255 | 0.26 | 0.727 | 0.873 | 0.712 | 0.83 | 0.968 | 0.379 | 0.449 | 0.405 | 0.442 | 0.31 | 0.196 | 0.697 | 0.523 | 0.622 | 0.154 | 0.133
NCI-H520 | 0.583 | 0.465 | 0.519 | 0.601 | 0.232 | 0.186 | 0.312 | 0.239 | 0.211 | 0.556 | 0.49 | 0.683 | 0.825 | 0.529 | 0.458 | 1.02 | 0.731 | 0.53 | 0.191 | 0.186
RERF-LC-KJ | 0.664 | 0.757 | 0.78 | 0.567 | 1.24 | 1.33 | 1.22 | 1.2 | 1.03 | 0.393 | 0.436 | 0.394 | 0.348 | 0.358 | 0.719 | 0.86 | 0.908 | 0.849 | 0.646 | 0.495
A-427 | 0.551 | 0.488 | 0.525 | 0.574 | 0.708 | 1.02 | 0.789 | 1.01 | 1.38 | 0.309 | 0.255 | 0.327 | 0.395 | 0.298 | 0.58 | 1.16 | 1.12 | 1.14 | 0.748 | 0.609
NCI-H441 | 0.245 | 0.232 | 0.25 | 0.264 | 0.248 | 0.388 | 0.313 | 0.308 | 0.445 | 0.742 | 0.814 | 0.905 | 0.907 | 0.786 | 0.287 | 0.594 | 0.592 | 0.435 | 0.343 | 0.286
NCI-H1703 | – | – | – | – | – | – | – | – | – | – | – | – | – | – | – | – | 0.637 | 0.891 | 0.417 | 0.468
NCI-H1792 | 0.481 | 0.602 | 0.51 | 0.604 | 0.359 | – | 0.452 | 0.478 | 0.404 | 0.302 | – | 0.31 | 0.417 | 0.263 | 0.494 | 0.57 | 0.483 | 0.382 | 0.112 | 0.0865
Calu-6 | – | – | – | – | – | – | – | – | – | – | – | – | – | – | – | 0.875 | 0.939 | 0.898 | 0.492 | 0.495
SW 1573 | 0.63 | 0.569 | 0.476 | 0.501 | 0.165 | 0.257 | 0.427 | 0.0963 | 0.277 | 0.36 | 0.402 | 0.333 | 0.341 | 0.373 | 0.517 | 0.824 | 0.606 | 0.525 | 0.297 | 0.242
PC-3 [JPC-3] | – | 0.861 | 0.79 | 0.79 | 0.65 | 0.697 | 0.661 | 0.635 | 0.739 | 0.423 | 0.446 | 0.433 | 0.484 | 0.422 | 0.849 | 0.996 | 0.984 | 1.03 | 0.816 | 0.639
EMC-BAC-2 | – | 0.862 | 0.924 | 0.943 | 1.14 | 1.13 | 1.23 | 1.03 | 1.19 | 0.497 | 0.593 | 0.496 | 0.508 | 0.487 | 0.938 | 0.872 | 0.806 | 0.798 | 0.591 | 0.475
